Experimental findings from patent US10035790B2, “RORγ modulators” (BRISTOL-MYERS SQUIBB COMPANY, priority 2012, dated 2018) are described below.

SMILES strings stand for the structures. pIC50: −log10 of the molar value.

The assay concerns the target T1, ligand binding domain of human RORγ (A262-S507) (Homo sapiens, UniProt P51449).
T1 construct: made in house; host or cells: E. coli
T1 sequence (P51449 262-507): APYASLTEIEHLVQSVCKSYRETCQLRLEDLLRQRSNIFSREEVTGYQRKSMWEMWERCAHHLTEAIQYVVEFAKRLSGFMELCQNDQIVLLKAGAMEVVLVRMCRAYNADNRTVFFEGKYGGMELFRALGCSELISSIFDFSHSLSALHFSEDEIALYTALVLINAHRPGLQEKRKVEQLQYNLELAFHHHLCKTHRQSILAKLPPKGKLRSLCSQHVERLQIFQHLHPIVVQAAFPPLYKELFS
The experiment in a line: General RORγ SPA binding assay (competition with [3H]25-hydroxycholesterol). To be noted: RORγ SPA binding assay, inhibition of [3H]25-hydroxycholesterol binding; read-out: IC50. The method in brief:
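Step one: compound meets 50 nM nickel-purified, His-tagged protein from E. coli for 15 min at room temperature (PBS, 0.5% fatty acid free BSA). Step two: radioligand is added for another 15 min. Step three: SPA beads are added for 30 min before scintillation reading and IC50 fitting.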
Take `Cc1ncc(C(N)COc2cccc(C(F)(F)F)n2)c(C2CCN(C(=O)Nc3c(F)cccc3F)CC2)n1` (stereo not shown) [Compound N23, 4-[5-(1-Amino-2-{[6-(trifluoromethyl)pyridin-2-yl]oxy}ethyl)-2-methylpyrimidin-4-yl]-N-(2,6-difluorophenyl)piperidine-1-carboxamide]: the pIC50 – broadly, the IC50 on a negative log10 scale, so that one unit is a factor of ten – is 7.91.

As to `Cc1cc(C)cc(CNC(=O)c2cnc(C)nc2C2CCN(C(=O)Oc3ccccc3Cl)CC2)c1` [Compound A119, 2-Chlorophenyl 4-[5-({[(3,5-dimethylphenyl)methyl]amino}carbonyl)-2-methylpyrimidin-4-yl]piperidine-1-carboxylate], the pIC50 was 8.21.

`Cc1ncc(C(=O)NCc2cc(Cl)cc(Cl)c2)c(C2CCN(C(=O)Cc3c(F)cccc3F)CC2)n1` [Compound A51, N-(3,5-dichlorobenzyl)-4-(1-(2-(2,6-difluorophonyl)acetyl)piperidin-4-yl)-2-methylpyrimidine-5-carboxamide]: the pIC50 is 8.14.

Take `Cc1cc(CNC(=O)c2cnc(C)nc2C2CCN(C(=O)Cc3c(F)cccc3F)CC2)ccn1` [Compound A70, 4-(1-(2-(2,6-difluorophenyl)acetyl)piperidin-4-yl)-2-methyl-N-((2-methylpyridin-4-yl)methyl)pyrimidine-5-carboxamide]: the pIC50 was 6.67. The value for `CNc1nc(C)nc(C2CCN(C(=O)Cc3c(F)cccc3F)CC2)c1C(=O)NCc1cc(C)cc(C)c1` [Compound A108, 4-(1-(2-(2,6-Difluorophenyl)acetyl)piperidin-4-yl)-N-(3,5-dimethylbenzyl)-2-methyl-6-(methylamino)pyrimidine-5-carboxamide] was 7.66; that for `Cc1ncc(C(=O)NCc2cccc(Cl)c2)c(C2(C)CCN(C(=O)Cc3c(F)cccc3F)CC2)n1` [Compound A102, N-(3-Chlorobenzyl)-4-(1-(2-(2,6-difluorophenyl)acetyl)-4-methylpiperidin-4-yl)-2-methylpyrimidine-5-carb oxamide] was 5.76.

`Cc1nc(C)c(-c2nnc(-c3ccnc(C(F)(F)F)n3)o2)c(C2CCN(C(=O)N(C)c3c(F)cccc3F)CC2)n1` [Compound C36, N-(2,6-Difluorophenyl)-4-(2,6-dimethyl-5-(5-(2-(trifluoromethyl)pyrimidin-4-yl)-1,3,4-oxadiazol-2-yl)pyrimidin-4-yl)-N-methylpiperidine-1-carboxamide]: the pIC50 is 6.81. The same measure for `Cc1nc(C)c(-c2nnc(-c3ccnc(C(F)(F)F)n3)o2)c(C2CCN(C(=O)Nc3ccccc3C(F)(F)F)CC2)n1` [Compound C30, 4-(2,6-dimethyl-5-{5-[2-(trifluoromethyl)pyrimidin-4-yl]-1,3,4-oxadiazol-2-yl}pyrimidin-4-yl)-N-[2-(trifluoromethyl)phenyl]piperidine-1-carboxamide]: 7.30. On to `O=C(COc1ccnc(C(F)(F)F)n1)c1cnc(NCCF)nc1C1CCN(C(=O)Nc2c(F)cccc2F)CC1` [Compound M7, N-(2,6-Difluorophenyl)-4-{2-[(2-fluoroethyl)amino]-5-({[2-(trifluoromethyl)pyrimidin-4-yl]oxy}acetyl)pyrimidin-4-yl}piperidine-1-carboxamide], for which the pIC50 was 6.80. The value for `CC(=O)NCCC(=O)NCC(O)(COc1cccc(C(F)(F)F)n1)c1cnc(C)nc1C1CCN(C(=O)Nc2c(F)cccc2F)CC1` (stereo not drawn) [Compound N41, 4-(5-{2-[(N-Acetyl-beta-alanyl)amino]-1-hydroxy-1-({[6-(trifluoromethyl)pyridin-2-yl]oxy}methyl)ethyl}-2-methylpyrimidin-4-yl)-N-(2,6-difluorophenyl)piperidine-1-carboxamide] was 6.82. The value for `C/C(=N\Oc1ccnc(C(F)(F)F)c1)c1cnc(C)nc1C1CCN(C(=O)Cc2c(F)cccc2F)CC1(F)F` (stereo not shown) [Compound B34, (E)-1-(3,3-Difluoro-4-(2-methyl-5-(1-(2-(trifluoromethyl)pyridin-4-yloxyimino)ethyl)pyrimidin-4-yl)piperidin-1-yl)-2-(2,6-difluorophenyl)ethanone] was 7.90; that for `Cc1cc(C)cc(COC(C)c2cnc(C)nc2C2CCN(C(=O)Cc3c(F)cccc3F)CC2)c1` (stereo not shown) [Compound E11, 2-(2,6-Difluorophenyl)-1-(4-(5-(1-(3,5-dimethylbenzyloxy)ethyl)-2-methylpyrimidin-4-yl)piperidin-1-yl)ethanone] was 7.72. For `Cc1ncc(C(=O)NCc2cccc(C(F)(F)F)c2)c(C2CCN(C(=O)Cc3c(F)cccc3F)CC2)n1` [Compound A46, 4-(1-(2-(2,6-difluorophenyl)acetyl)piperidin-4-yl)-2-methyl-N-(3-(trifluoromethyl)benzyl)pyrimidine-5-carboxamide], the negative-log IC50 (pIC50) was 8.21. The value for `CC(=O)Nc1ncc(C(C)(O)COc2ccnc(C(F)(F)F)n2)c(C2CCN(C(=O)Nc3c(F)cccc3F)CC2)n1` (stereo not shown) [Compound D31, 4-[2-(Acetylamino)-5-(1-hydroxy-1-methyl-2-{[2-(trifluoromethyl)pyrimidin-4-yl]oxy}ethyl)pyrimidin-4-yl]-N-(2,6-difluorophenyl)piperidine-1-carboxamide] was 6.92; that for `CC(O)(COc1ccnc(C(F)(F)F)n1)c1cnc(OC(CF)CF)nc1C1CCN(C(=O)Nc2c(F)cccc2F)CC1` (stereo not shown) [Compound D42, N-(2,6-Difluorophenyl)-4-[2-{[2-fluoro-1-(fluoromethyl)ethyl]oxy}-5-(1-hydroxy-1-methyl-2-{[2-(trifluoromethyl)pyrimidin-4-yl]oxy}ethyl)pyrimidin-4-yl]piperidine-1-carboxamide] was 6.46; that for `Cc1nc(C)c(-c2nnc(-c3ccnc(C(F)(F)F)n3)o2)c(C2CCN(C(=O)C(F)(F)c3ccccc3F)CC2)n1` [Compound C44, 4-{1-[Difluoro(2-fluorophenyl)acetyl]piperidin-4-yl}-2,6-dimethyl-5-{5-[2-(trifluoromethyl)pyrimidin-4-yl]-1,3,4-oxadiazol-2-yl}pyrimidine] was 8.49.

As for `Cc1cccc(CNC(=O)c2cnc(C)nc2C2CCN(C(=O)Cc3c(F)cccc3F)CC2)c1` [Compound A60, 4-(1-(2-(2,6-difluorophenyl)acetyl)piperidin-4-yl)-2-methyl-N-(3-methylbenzyl)pyrimidine-5-carboxamide], the negative logarithm of the IC50 (pIC50) is 7.46.

In the case of `Cc1ncc(C(=O)NC(CO)c2cccc(Cl)c2)c(C2CCN(C(=O)Cc3c(F)cccc3F)CC2)n1` (stereo not shown) [Compound A110, N-(1-(3-Chlorophenyl)-2-hydroxyethyl)-4-(1-(2-(2,6-difluorophenyl)acetyl)piperidin-4-yl)-2-methylpyrimidine-5-carboxamide], the pIC50 is 5.84. The value for `Cc1ncc(C(C)(C)CNc2ccnc(C(F)(F)F)n2)c(C2CCN(C(=O)Cc3c(F)cccc3F)CC2)n1` [Compound F1, 2-(2,6-Difluorophenyl)-1-(4-(2-methyl-5-(2-methyl-1-(2-(trifluoromethyl)pyrimidin-4-ylamino)propan-2-yl)pyrimidin-4-yl)piperidin-1-yl)ethanone] was 7.12.
